From patent publication US10759781B2, “Substituted guanidine derivatives” (UBE INDUSTRIES, LTD., priority 2015, dated 2020)
Counter-ions that a name gives are not always drawn.

Molecular target: T1, Human VAP-1 enzyme (Homo sapiens, UniProt Q16853)
T1 construct: purchased R&D Systems, Inc
T1 sequence (Q16853 1-763): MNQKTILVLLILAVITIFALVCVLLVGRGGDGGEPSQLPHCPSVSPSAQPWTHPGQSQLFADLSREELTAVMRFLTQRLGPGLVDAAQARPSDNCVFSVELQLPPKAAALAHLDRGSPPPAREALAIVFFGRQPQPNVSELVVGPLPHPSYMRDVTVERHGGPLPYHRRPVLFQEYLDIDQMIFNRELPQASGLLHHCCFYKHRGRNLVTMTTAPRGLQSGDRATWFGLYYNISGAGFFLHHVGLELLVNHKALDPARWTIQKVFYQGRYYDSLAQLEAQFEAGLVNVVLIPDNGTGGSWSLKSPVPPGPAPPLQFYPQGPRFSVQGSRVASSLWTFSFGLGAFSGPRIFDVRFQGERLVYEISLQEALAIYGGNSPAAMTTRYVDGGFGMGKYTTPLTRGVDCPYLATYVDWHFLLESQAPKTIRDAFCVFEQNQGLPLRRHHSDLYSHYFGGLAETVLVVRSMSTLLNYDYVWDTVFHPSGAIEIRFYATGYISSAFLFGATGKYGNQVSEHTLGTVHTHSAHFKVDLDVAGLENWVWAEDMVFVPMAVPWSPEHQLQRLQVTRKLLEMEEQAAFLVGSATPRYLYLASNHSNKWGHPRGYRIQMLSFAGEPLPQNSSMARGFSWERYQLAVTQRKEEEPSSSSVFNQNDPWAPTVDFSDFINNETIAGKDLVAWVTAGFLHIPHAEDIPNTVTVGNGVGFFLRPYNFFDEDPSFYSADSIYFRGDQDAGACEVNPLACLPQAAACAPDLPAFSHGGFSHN
Assay: Human VAP-1 enzyme inhibition test
Type: biochemical
Settings: 1 h; compound 30 nM; 14C-benzylamine 100 μM; read-out: inhibition ratio (human VAP-1 enzyme)
Procedure: Human VAP-1 enzyme inhibition test
This test was conducted by modifying the method of P. H. Yu et al. (Diabetologia 40 1243 (1997)). Human VAP-1 enzyme (R&D Systems, Inc.) was pre-incubated in a 96-well plate with the compound dissolved in dimethylsulfoxide at room temperature for 20 minutes. Next, in a solution to the final volume of 200 μL, the enzyme reaction solution was incubated with ^14C-benzylamine (final concentration 100 μM) at 37° C. for 1 hour. The reaction was terminated by the addition of 100 μL of 2 M citric acid solution to the reaction solution. The oxidative product was extracted using a toluene/ethyl acetate mixture and the radioactivity was measured with a liquid scintillation counter. The inhibition ratio of the compound was calculated using the following equation. Inhibition ratio={1−[VAP-1 enzyme activity after treatment with the compound]/[VAP-1 enzyme activity in the presence of dimethylsulfoxide alone without the compound]}×100

Row | Structure (SMILES) | inhibition at 0.03 µM
1 | N=C(N)NC(=O)OCc1cccc(-c2cnc(N3CC(=NOC4CN(CC(F)(F)F)C4)C3)nc2)c1F [Example 140, 2-Fluoro-3-{2-[3-({[1-(2,2,2-trifluoroethyl)azetidin-3-yl]oxy}imino)azetidin-1-yl]pyrimidin-5-yl}benzyl carbamimidoylcarbamate] | ≥ 50%
2 | CCN1CC(ON=C2CN(c3ncc(-c4cccc(COC(=O)NC(=N)N)c4F)cn3)C2)C1 [Example 142, 3-[2-(3-{[(1-Ethylazetidin-3-yl)oxy]imino}azetidin-1-yl)pyrimidin-5-yl]-2-fluorobenzyl carbamimidoylcarbamate] | ≥ 50%
3 | COC(=O)N1CC(ON=C2CN(c3ncc(-c4cccc(COC(=O)NC(=N)N)c4F)cn3)C2)C1 [Example 143, Methyl 3-[({1-[5-(3-{[(carbamimidoylcarbamoyl)oxy]methyl}-2-fluorophenyl)pyrimidin-2-yl]azetidin-3-ylidene}amino)oxy]azetidin-1-carboxylate] | ≥ 50%
4 | N=C(N)NC(=O)OCc1cccc(-c2cnc(N3CC(=NOC4CN(CCO)C4)C3)nc2)c1F [Example 146, 2-Fluoro-3-{2-[3-({[1-(2-hydroxyethyl)azetidin-3-yl]oxy}imino)azetidin-1-yl]pyrimidin-5-yl}benzyl carbamimidoylcarbamate] | ≥ 50%
5 | COCCN1CC(ON=C2CN(c3ncc(-c4cccc(COC(=O)NC(=N)N)c4F)cn3)C2)C1 [Example 147, 2-Fluoro-3-{2-[3-({[1-(2-methoxyethyl)azetidin-3-yl]oxy}imino)azetidin-1-yl]pyrimidin-5-yl}benzyl carbamimidoylcarbamate] | ≥ 50%
6 | N=C(N)NC(=O)OCc1cccc(-c2cnc(N3CC(=NOC4CN(CCF)C4)C3)nc2)c1F [Example 148, 2-Fluoro-3-{2-[3-({[1-(2-fluoroethyl)azetidin-3-yl]oxy}imino)azetidin-1-yl]pyrimidin-5-yl}benzyl carbamimidoylcarbamate] | ≥ 50%
7 | CCOC(=O)CCCON=C1CCN(c2ncc(-c3cccc(COC(=O)NC(=N)N)c3F)cn2)CC1 [Example 152, Ethyl 4-[({1-[5-(3-{[(carbamimidoylcarbamoyl)oxy]methyl}-2-fluorophenyl)pyrimidin-2-yl]piperidin-4-ylidene}amino)oxy]butanoate] | ≥ 50%
8 | CN(CCON=C1CCN(c2ncc(-c3cccc(COC(=O)NC(=N)N)c3F)cn2)CC1)S(C)(=O)=O [Example 157, 2-Fluoro-3-[2-(4-{[2-(N-methylmethylsulfonamido)ethoxy]imino}piperidin-1-yl)pyrimidin-5-yl]benzyl carbamimidoylcarbamate hydrochloride] | ≥ 50%
9 | CNCCON=C1CCN(c2ncc(-c3cccc(COC(=O)NC(=N)N)c3F)cn2)CC1 [Example 162, 2-Fluoro-3-[2-(4-{[2-(methylamino)ethoxy]imino}piperidin-1-yl)pyrimidin-5-yl]benzyl carbamimidoylcarbamate dihydrochloride] | ≥ 50%
10 | N=C(N)NC(=O)OCc1cccc(-c2cnc(N3CCC(=NOCCN)CC3)nc2)c1F [Example 164, 3-(2-{4-[(2-Aminoethoxy)imino]piperidin-1-yl}pyrimidin-5-yl)-2-fluorobenzyl carbamimidoylcarbamate] | ≥ 50%
11 | N=C(N)NC(=O)OCc1cccc(-c2cnc(N3CCC(=NOCc4cnn(C5CCCCO5)c4)CC3)nc2)c1F (stereo not shown) [Example 172, 2-Fluoro-3-{2-[4-({[1-(tetrahydropyran-2-yl)-1H-pyrazol-4-yl]methoxy}imino)piperidin-1-yl]pyrimidin-5-yl}benzyl carbamimidoylcarbamate] | ≥ 50%
12 | N=C(N)NC(=O)OCc1cccc(-c2cnc(N3CCC(=NOCCN4CCOC4=O)CC3)nc2)c1F [Example 179, 2-Fluoro-3-[2-(4-{[2-(2-oxooxazolidin-3-yl)ethoxy]imino}piperidin-1-yl)pyrimidin-5-yl]benzyl carbamimidoylcarbamate] | ≥ 50%

Next, values leading:

Row | inhibition at 0.03 µM | Structure (SMILES)
13 | ≥ 50% | N=C(N)NC(=O)OCc1cccc(-c2cnc(N3CCC(=NOCCN4CCOCC4=O)CC3)nc2)c1F [Example 180, 2-Fluoro-3-[2-(4-{[2-(3-oxomorpholino)ethoxy]imino}piperidin-1-yl)pyrimidin-5-yl]benzyl carbamimidoylcarbamate]
14 | ≥ 50% | CON=C1CN(c2ncc(-c3cccc(COC(=O)NC(=N)N)c3F)cn2)C1 [Example 184, 2-Fluoro-3-{2-[3-(methoxyimino)azetidin-1-yl]pyrimidin-5-yl}benzyl carbamimidoylcarbamate 1/2 L-tartrate]
15 | ≥ 50% | CCON=C1CN(c2ncc(-c3cccc(COC(=O)NC(=N)N)c3F)cn2)C1 [Example 188, 3-{2-[3-(Ethoxyimino)azetidin-1-yl]pyrimidin-5-yl}-2-fluorobenzyl carbamimidoylcarbamate 1/2 L-tartrate]
16 | ≥ 50% | O=C(O)C(O)C(O)C(=O)O.[2H]C([2H])([2H])ON=C1CN(c2ncc(-c3cccc(COC(=O)NC(=N)N)c3F)cn2)C1 [Example 192, 2-Fluoro-3-(2-{3-[(methoxy-d3)imino]azetidin-1-yl}pyrimidin-5-yl)benzyl carbamimidoylcarbamate 1/2 L-tartrate]
17 | ≥ 50% | O=C(O)/C=C\C(=O)O.[2H]C([2H])([2H])ON=C1CN(c2ncc(-c3cccc(COC(=O)NC(=N)N)c3F)cn2)C1 [Example 194, 2-Fluoro-3-(2-{3-[(methoxy-d3)imino]azetidin-1-yl}pyrimidin-5-yl)benzyl carbamimidoylcarbamate maleate]
18 | ≥ 50% | O=C(O)CCC(=O)O.[2H]C([2H])([2H])ON=C1CN(c2ncc(-c3cccc(COC(=O)NC(=N)N)c3F)cn2)C1 [Example 195, 2-Fluoro-3-(2-{3-[(methoxy-d3)imino]azetidin-1-yl}pyrimidin-5-yl)benzyl carbamimidoylcarbamate 1/2 succinate]
19 | ≥ 50% | N=C(N)NC(=O)OCc1cccc(-c2cnc(N3CC(=NOCCF)C3)nc2)c1F [Example 196, 2-Fluoro-3-(2-{3-[(2-fluoroethoxy)imino]azetidin-1-yl}pyrimidin-5-yl)benzyl carbamimidoylcarbamate 1/2 L-tartrate]
20 | ≥ 50% | O=C(O)C(O)C(O)C(=O)O.[2H]C([2H])([2H])ON=C1CN(c2ncc(-c3cccc(COC(=O)NC(=N)N)c3F)cc2F)C1 [Example 204, 2-Fluoro-3-(5-fluoro-6-{3-[(methoxy-d3)imino]azetidin-1-yl}pyridin-3-yl)benzyl carbamimidoylcarbamate 1/2 L-tartrate]
21 | ≥ 50% | O=C(O)/C=C\C(=O)O.[2H]C([2H])([2H])ON=C1CN(c2ncc(-c3cccc(COC(=O)NC(=N)N)c3F)cc2F)C1 [Example 206, 2-Fluoro-3-(5-fluoro-6-{3-[(methoxy-d3)imino]azetidin-1-yl}pyridin-3-yl)benzyl carbamimidoylcarbamate maleate]
22 | ≥ 50% | O=C(O)CCC(=O)O.[2H]C([2H])([2H])ON=C1CN(c2ncc(-c3cccc(COC(=O)NC(=N)N)c3F)cc2F)C1 [Example 207, 2-Fluoro-3-(5-fluoro-6-{3-[(methoxy-d3)imino]azetidin-1-yl}pyridin-3-yl)benzyl carbamimidoylcarbamate 1/2 succinate]
